Results as given in US8563546B2, “Heterocyclic nitrogenous or oxygenous compounds with insecticidal activity formed from dialdehydes and their preparation and uses thereof” (East China University of Science and Technology, priority 2008, dated 2013).
Where two headings read alike, the source gives them in different places.

Legend:
Type in all cases: in vivo
Aphis craccivoral = assay: Activity test for cowpea aphids, immersing; details: for mortality at 500 ppm: Aphis, read-out: Cowpea Aphids Mortality (100%) 500 ppm
Method: (1) Activity Test for Cowpea Aphids (Aphis Craccivoral)
Aphis, which belongs to Homoptera and has a piercing-sucking mouthpart, is a common insect for agricultural plant. Aphis craccivoral was tested by the way of immersing.
Test method: exactly weighed various samples were independently added to N,N-dimethylformamide to form a 10 g/L stock solution. The mixture was diluted with 0.2 mL/L aqueous Triton X-100 solution to a concentration of 500 ppm After stably sucking on bean sprout, the adult aphis without wings together with bean sprout was dipped into 500 ppm dilution, taken out after 5 seconds, and the excess dilution was sucked out with bibulous paper and the adult aphis without wings was incubated in clean vessel at a constant temperature of 23° C. Each concentration was repeated for 3 times and the control group contained 0.2 mL/L aqueous Triton X-100 solution. The number of killed aphis was counted after 24 hours to calculate the mortality by the following formula: mortality(%)=(control alive aphis−treated alive aphis)/control alive aphis×100%.

[1] = tested on: Pseudaletia Separate Walker; assay: Activity test for armyworm, feeding immersed maize leaves; details: for mortality at 500 ppm: read-out: Armyworm Mortality (100%) 500 ppm
Method: (3) Activity Test for Armyworm (Pseudaletia Separate Walker)
Armyworm was tested by the way of feeding immersed leaves. The test compound was exactly formulated into a solution of acetone to concentration 500, 250, 100, 50, 25, 12.5, 6.25, 3.13 and 1.57 ppm. The acetone aqueous solution was used as control. Fresh maize leaves were immersed in the solution for 3 seconds and dried at room temperature and used to feed the tested insects. Each process was repeated for 3 times while 10 Armyworms were tested in each experiment. The number of killed Armyworms was counted after 24 hours to calculate the mortality using above mentioned formula.

Nilaparvata lugens = assay: Activity test for planthopper, spraying; details: for mortality at 500 ppm: Nilaparvata lugens, read-out: Planthopper Mortality (100%) 500 ppm
Method: (2) Activity Test for Planthopper (Nilaparvata lugens)
Planthopper, which belongs to Homoptera and has a piercing-sucking mouthpart, is a common insect for agricultural plant. Nilaparvata lugens was tested by the way of spraying.
Test method: the test compound was exactly formulated into a solution of acetone to final concentration of 500, 250, 100, 50, 25, 12.5, 6.25, 3.13, 1.57 and 0.79 ppm. The acetone aqueous solution was used as control. Each process was repeated for 3 tumblers (3 times). 2 mL of solution was sprayed uniformly to each cup by a mini manual sprayer. 10 Nilaparvata lugens were introduced to every sink 6 hours before spraying. Three series of experiments were conducted. The number of killed Nilaparvata lugens was counted after 24 hours to calculate the mortality using above mentioned formula.

Plutella Xylostella = assay: Activity test for diamondback moth, feeding immersed cabbage leaves; details: for mortality at 500 ppm: Plutella xylostella, read-out: Diamondback moth Mortality (100%) 500 ppm
Method: (4) Activity Test for Diamondback Moth (Plutella Xylostella)
Diamondback moth was tested by the way of feeding immersed leaves. Fresh cabbage leaves were immersed in above mentioned solution for 3 seconds and dried at room temperature and used to feed to the tested insects. Each process was repeated for 3 tumblers (3 times) while 10 Diamondback moths were tested in each experiment, while water was used as control. The number of killed Diamondback moth was counted after 24 hours to calculate the mortality using above mentioned formula.

[2] = 500 ppm, dipped 5 seconds, counted after 24 hours, 23° C.
[3] = 500 ppm, immersed maize leaves, counted after 24 hours
[4] = 500 ppm, spraying, counted after 24 hours
[5] = 500 ppm, immersed cabbage leaves, counted after 24 hours

Compound | mortality at 500 ppm (Aphis craccivoral; 24 h) | mortality at 500 ppm ([1]; 24 h) | mortality at 500 ppm (Nilaparvata lugens; 24 h) | mortality at 500 ppm (Plutella Xylostella; 24 h) | mortality at 500 ppm (Aphis craccivoral; [2]) | mortality at 500 ppm [1, 3] | mortality at 500 ppm (Nilaparvata lugens; [4]) | mortality at 500 ppm (Plutella Xylostella; [5]) | other results
1-((6-chloropyridin-3-yl)methyl)-5-(1-((6-chloropyridin-3-yl) methyl)-1,4,5,6-tetrahydropyrimidin-2-yl)-1,5-dinitropenta-1,4-dienyl)-1,4,5,6-tetrahydropyrimidine [Compound 43] | – | – | – | – | – | – | – | – | Cowpea Aphids Mortality (100%) 500 ppm (Aphis craccivoral; [2]): 78%; Armyworm Mortality (100%) 500 ppm [1, 3]: 100%; Planthopper Mortality (100%) 500 ppm (Nilaparvata lugens; [4]): 87%; Diamondback moth Mortality (100%) 500 ppm (Plutella Xylostella; [5]): 96%
O=[N+]([O-])/C(=C1/NCCN1Cc1ccc(Cl)nc1)C(O)/C=C(\C1=NCCN1Cc1ccc(Cl)nc1)[N+](=O)[O-] (stereo not shown) [Compound 13, 4-(1-((6-chloropyridin-3-yl)methyl)-4,5-dihydro-1H-imidazol-2-yl)-1-(1-((6-chloropyridin-3-yl)methyl)imidazolidin-2-ylidene)-1,4-dinitrobut-3-en-2-ol] | 78% | 100% | 85% | 100% | – | – | – | – | –
COC(/C=C(\C1=NCCN1Cc1ccc(Cl)nc1)[N+](=O)[O-])/C(=C1\NCCN1Cc1ccc(Cl)nc1)[N+](=O)[O-] (stereo not shown) [Compound 14] | 100% | 100% | 100% | 100% | – | – | – | – | –
CCN(Cc1ccc(Cl)nc1)C(=N\C)/C(=C\C/C=C(\C(=N\C)N(CC)Cc1ccc(Cl)nc1)[N+](=O)[O-])[N+](=O)[O-] [Compound 37, N^1,N^7-bis((6-chloropyridin-3-yl)methyl)-N^1,N^7-diethyl-N^1′, N^7′-dimethyl-2,6-dinitrohepta-2,5-dienediamidine] | 100% | 100% | 100% | 100% | – | – | – | – | –
O=[N+]([O-])/C(=C/C/C=C(\C1=NCCN1Cc1ccc(Cl)nc1)[N+](=O)[O-])C1=NCCN1Cc1ccc(Cl)nc1 [Compound 39] | 100% | 100% | 100% | 100% | – | – | – | – | –
O=[N+]([O-])/C(=C/C/C=C(\C1=NCCN1Cc1cnc(Cl)s1)[N+](=O)[O-])C1=NCCN1Cc1cnc(Cl)s1 [Compound 41] | 100% | 100% | 100% | 100% | – | – | – | – | –
CCN(Cc1ccc(Cl)nc1)C1=C([N+](=O)[O-])C2CCC(O2)N1C (stereo not shown) [Compound 46, N-((6-chloropyridin-3-yl)methyl)-N-ethyl-2-methyl-4-nitro-8-oxa-2-aza-bicyclo[3.2.1]oct-3-en-3-amine] | – | – | – | – | 100% | 100% | 100% | 100% | –
O=[N+]([O-])C1=C2N(Cc3ccc(Cl)nc3)CCN2C2CCC1O2 (stereo not shown) [Compound 52, 1-((6-chloropyridin-3-yl)methyl)-9-nitro-2,3,5,6,7,8-hexahydro-1H-5,8-epoxyimidazo[1,2-a]azepine] | – | – | – | – | 100% | 100% | 100% | 100% | –
O=[N+]([O-])C1=C2N(Cc3cnc(Cl)s3)CCN2C2CCC1O2 (stereo not shown) [Compound 53, 1-((2-chlorothiazol-5-yl)methyl)-9-nitro-2,3,5,6,7,8-hexahydro-1H-5,8-epoxyimidazo[1,2-a]azepine] | – | – | – | – | 100% | 100% | 100% | 100% | –
O=[N+]([O-])C1=C2N(Cc3ccc(Cl)nc3)CCCN2C2CCC1O2 (stereo not shown) [Compound 61, 1-((6-chloropyridin-3-yl)methyl)-10-nitro-1,2,3,4,6,7,8,9-octahydro-6,9-epoxypyrimido[1,2-a]azepine] | – | – | – | – | 65% | 76% | 75% | 35% | –
N#CC1=C2N(Cc3ccc(Cl)nc3)CCN2C2CCC1O2 (stereo not shown) [Compound 64, 1-((6-chloropyridin-3-yl)methyl)-2,3,5,6,7,8-hexahydro-1H-5,8-epoxyimidazo[1,2-a]azepine-9-carbonitrile] | – | – | – | – | 96% | 100% | 56% | 100% | –
O=[N+]([O-])C1=C2N(Cc3ccc(Cl)nc3)CCN2C2CCCC1O2 (stereo not shown) [Compound 77, 1-((6-chloropyridin-3-yl)methyl)-10-nitro-1,2,3,5,6,7,8,9-octahydro-5,9-epoxyimidazo[1,2-a]azocine] | – | – | – | – | 100% | 100% | 100% | 100% | –
O=[N+]([O-])C1=C2N(CC3CCOC3)CCN2C2CCCC1O2 (stereo not shown) [Compound 80, 10-nitro-1-((tetrahydrofuran-3-yl)methyl)-1,2,3,5,6,7,8,9-octahydro-5,9-epoxyimidazo[1,2-a]azocine] | 100% | 100% | 100% | – | – | – | – | 100% | –
